What follows are molecules tested against PAR4 (Homo sapiens (Human), UniProt Q96RI0) (assay: FLIPR assay in PAR4-expressing HEK293 cells (PAR4 antagonist activity, calcium mobilization)). Details: FLIPR assay as described in Example A.
Type: cell-based
In short: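 HEK293 cells stably expressing human PAR4 (also endogenous PAR1) in HBSS/10 mM HEPES, 0.67% DMSO final. Compound added and read for agonist activity, then 30 min room temperature before PAR4 agonist peptide; intracellular calcium mobilization monitored by FDSS/FLIPR.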

Sequence of PAR4 (Q96RI0 18-385): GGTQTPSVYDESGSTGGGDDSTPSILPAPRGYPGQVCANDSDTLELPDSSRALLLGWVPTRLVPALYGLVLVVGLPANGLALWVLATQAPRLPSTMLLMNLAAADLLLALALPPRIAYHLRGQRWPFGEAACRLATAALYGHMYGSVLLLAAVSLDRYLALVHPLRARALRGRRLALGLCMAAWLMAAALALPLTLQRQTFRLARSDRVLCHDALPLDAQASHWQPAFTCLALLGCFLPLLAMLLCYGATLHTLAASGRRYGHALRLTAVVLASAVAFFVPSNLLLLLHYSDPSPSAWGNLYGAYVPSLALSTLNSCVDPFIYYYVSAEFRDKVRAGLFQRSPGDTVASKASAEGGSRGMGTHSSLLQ

IC50 [nM] | Structure (SMILES)
19.4 | CSc1nn2cc(-c3cc4c(OCc5ccc(F)cc5)cccc4o3)nc2s1 [Example 249]
267 | CC(F)(F)c1nn2cc(-c3cc4c(OCc5ccccc5)cccc4o3)nc2s1 [Example 250]
230 | CC(F)c1nn2cc(-c3cc4c(OCc5ccccc5)cccc4o3)nc2s1 (stereo not shown) [Example 251]
604 | Brc1nn2cc(-c3cc4c(OCc5ccccc5)cc(OCc5ccccc5)cc4o3)nc2s1 [Example 254]
48.4 | COCCOc1cccc2oc(-c3cn4nc(OC)sc4n3)cc12 [Example 256]
50.2 | CSc1nn2cc(-c3cc4cccc(F)c4o3)nc2s1 [Example 257]
3.32 | CSc1nn2cc(-c3cc4c(Br)cccc4o3)nc2s1 [Example 258]
323 | Fc1cccc2cc(-c3cn4nc(Br)sc4n3)oc12 [Example 259]
4.45 | COc1ccc2cc(-c3cn4nc(Br)sc4n3)oc2c1 [Example 260]
4.53 | COc1cc2oc(-c3cn4nc(SC)sc4n3)cc2cc1Br [Example 261]
4.28 | CSc1nn2cc(-c3cc4c(F)cccc4o3)nc2s1 [Example 262]
20.7 | COc1nn2cc(-c3cc4cccc(F)c4o3)nc2s1 [Example 263]
37.8 | Fc1ccc2cc(-c3cn4nc(Br)sc4n3)oc2c1 [Example 264]
28 | COc1cc(OCc2ccccc2)c2cc(-c3cn4nc(C(C)(F)F)sc4n3)oc2c1 [Example 265]
43.1 | COc1nn2cc(-c3cc4c(OCc5ccc(F)cc5)cccc4o3)nc2s1 [Example 266]
7.53 | CCOc1cc(OC)cc2oc(-c3cn4nc(Br)sc4n3)cc12 [Example 267]
21.8 | COCCOc1cccc2oc(-c3cn4nc(SC)sc4n3)cc12 [Example 268]

IC50 [nM] | Structure (SMILES)
74.5 | CSc1nn2cc(-c3cc4cc(Cl)c(C)cc4o3)nc2s1 [Example 269]
19.4 | COc1ccc2cc(-c3cn4nc(C(C)(F)F)sc4n3)oc2c1 [Example 271]
29.1 | COc1cc2oc(-c3cn4nc(C(C)(F)F)sc4n3)cc2cc1Br [Example 272]
180 | CC(F)(F)c1nn2cc(-c3cc4c(F)cccc4o3)nc2s1 [Example 273]
1970 | Cc1cc2oc(-c3cn4nc(C(C)(F)F)sc4n3)cc2cc1Cl [Example 274]
23.1 | COc1cc2oc(-c3cn4nc(Br)sc4n3)cc2cc1Br [Example 275]
120 | Fc1cccc2oc(-c3cn4nc(Br)sc4n3)cc12 [Example 276]
512 | Cc1cc2oc(-c3cn4nc(Br)sc4n3)cc2cc1Cl [Example 277]
52.6 | COc1nn2cc(-c3cc4cc(Br)c(OC)cc4o3)nc2s1 [Example 278]
3.46 | COc1nn2cc(-c3cc4c(F)cccc4o3)nc2s1 [Example 279]
1340 | COc1nn2cc(-c3cc4c(OCc5cccc(C#N)c5)cccc4o3)nc2s1 [Example 281]
2710 | COc1cc(Br)c2oc(-c3cn4nc(SC)sc4n3)cc2c1 [Example 283]
139 | COc1cc(Br)cc2cc(-c3cn4nc(SC)sc4n3)oc12 [Example 284]
317 | COc1ccc(Br)c2cc(-c3cn4nc(Br)sc4n3)oc12 [Example 285]
276 | COc1cc(Br)cc2cc(-c3cn4nc(Br)sc4n3)oc12 [Example 286]
8.19 | CSc1nn2cc(-c3cc4c(Cl)cc(Cl)cc4o3)nc2s1 [Example 287]
94.1 | Clc1cc(Cl)c2cc(-c3cn4nc(Br)sc4n3)oc2c1 [Example 288]

Continued, molecule first:

Structure (SMILES) | IC50 [nM]
FC(F)(Cl)c1nn2cc(-c3cc4ccccc4o3)nc2s1 [Example 209, 6-(Benzofuran-2-yl)-2-(chlorodifluoromethyl)imidazo[2,1-b][1,3,4]thiadiazole] | 442
COc1nn2cc(-c3cc4c(OCc5ccccc5)cccc4o3)nc2s1 [Example 210, 6-(4-(Benzyloxy)benzofuran-2-yl)-2-methoxyimidazo[2,1-b][1,3,4]thiadiazole] | 24.5
COc1nn2cc(-c3cc4c(O)cccc4o3)nc2s1 [Example 211, 2-(2-Methoxyimidazo[2,1-b][1,3,4]thiadiazol-6-yl)benzofuran-4-ol] | 111
COc1cc(OC)c2cc(-c3cn4nc(C(C)F)sc4n3)oc2c1 (stereo not shown) [Example 212, 6-(4,6-Dimethoxybenzofuran-2-yl)-2-(1-fluoroethyl)imidazo-[2,1-b][1,3,4]thiadiazole] | 50.9
C[C@@H](F)c1nn2cc(-c3cc4c(Cl)cc(Cl)cc4o3)nc2s1 [Example 213A, (R)-6-(4,6-Dichlorobenzofuran-2-yl)-2-(1-fluoroethyl)imidazo[2,1-b][1,3,4]thiadiazole] | 333
C[C@H](F)c1nn2cc(-c3cc4c(Cl)cc(Cl)cc4o3)nc2s1 [Example 213B, (S)-6-(4,6-Dichlorobenzofuran-2-yl)-2-(1-fluoroethyl)imidazo[2,1-b][1,3,4]thiadiazole] | 10.3
CSc1nn2cc(-c3cc4c(O)cccc4o3)nc2s1 [Example 214, 2-(2-(Methylthio)imidazo[2,1-b][1,3,4]thiadiazol-6-yl)benzofuran-4-ol] | 322
COCOc1cccc2oc(-c3cn4nc(SC)sc4n3)cc12 [Example 215, 6-(4-(Methoxymethoxy)benzofuran-2-yl)-2-(methylthio)imidazo[2,1-b][1,3,4]thiadiazole] | 16.7
CSc1nn2cc(-c3cc4c(OCc5cccnc5)cccc4o3)nc2s1 [Example 216, 2-(Methylthio)-6-(4-(pyridin-3-ylmethoxy)benzofuran-2-yl) imidazo[2,1-b][1,3,4]thiadiazole] | 482
COCOc1cccc2oc(-c3cn4nc(OC)sc4n3)cc12 [Example 217, 2-Methoxy-6-(4-(methoxymethoxy)benzofuran-2-yl)imidazo[2,1-b][1,3,4]thiadiazole] | 7.51
COCOc1c(Br)ccc2oc(-c3cn4nc(OC)sc4n3)cc12 [Example 217A, 6-(5-Bromo-4-(methoxymethoxy)benzofuran-2-yl)-2-methoxyimidazo[2,1-b][1,3,4]thiadiazole] | 45.1
CSc1nn2cc(-c3cc4c(C(=O)O)cccc4o3)nc2s1 [Example 219, 2-(2-(Methylthio)imidazo[2,1-b][1,3,4]thiadiazol-6-yl)benzofuran-4-carboxylic acid] | 1280
CSc1nn2cc(-c3cc4ccc(C(=O)NCc5ccccc5)cc4o3)nc2s1 [Example 220, N-Benzyl-2-(2-(methylthio)imidazo[2,1-b][1,3,4]thiadiazol-6-yl)benzofuran-6-carboxamide] | 307
CSc1nn2cc(-c3cc4c(Cl)nccc4o3)nc2s1 [Example 221, 4-Chloro-2-(2-(methylthio)imidazo[2,1-b][1,3,4]thiadiazol-6-yl)furo[3,2-c]pyridine] | 12.5
Clc1nccc2oc(-c3cn4nc(Br)sc4n3)cc12 [Example 222, 2-(2-Bromoimidazo[2,1-b][1,3,4]thiadiazol-6-yl)-4-chlorofuro[3,2-c]pyridine] | 464
COc1nn2cc(-c3cc4c(Cl)nccc4o3)nc2s1 [Example 223, 4-Chloro-2-(2-methoxyimidazo[2,1-b][1,3,4]thiadiazol-6-yl)furo[3,2-c]pyridine] | 21.6
COc1nn2cc(-c3cc4c(O)c(Cc5ccccc5)c(OC)cc4o3)nc2s1 [Example 224, 5-Benzyl-6-methoxy-2-(2-methoxyimidazo[2,1-b][1,3,4]thiadiazol-6-yl)benzofuran-4-ol] | 97.1
COc1cc(OC)c2cc(-c3cn4nc(C(C)(F)F)sc4n3)oc2c1Br [Example 225, 6-(7-Bromo-4,6-dimethoxybenzofuran-2-yl)-2-(1,1-difluoroethyl)imidazo[2,1-b][1,3,4]thiadiazole] | 300
COc1nn2cc(-c3cc4c(OCc5ccccc5)cc(OC)c(Br)c4o3)nc2s1 [Example 226, 6-(4-(Benzyloxy)-7-bromo-6-methoxybenzofuran-2-yl)-2-methoxyimidazo[2,1-b][1,3,4]thiadiazole] | 591
COc1cc(OCc2ccccc2)c2cc(-c3cn4nc(SC)sc4n3)oc2c1 [Example 227-228] | 4.05

Structure (SMILES) | IC50 [nM]
COc1cc(OC)c2cc(-c3cn4nc(SC)sc4n3)oc2c1 [Example 229] | 1.22
CSc1nn2cc(-c3cc4cc(OCc5ccccc5)ccc4o3)nc2s1 [Example 230] | 2300
CC(F)(F)c1nn2cc(-c3cc4ccc(F)cc4o3)nc2s1 [Example 231] | 22.3
Cc1ccc2oc(-c3cn4nc(C(C)(F)F)sc4n3)cc2c1 [Example 232] | 152
Cc1ccc2cc(-c3cn4nc(C(C)(F)F)sc4n3)oc2c1 [Example 233] | 15.7
Cc1cccc2cc(-c3cn4nc(C(C)(F)F)sc4n3)oc12 [Example 234] | 113
CC(F)(F)c1nn2cc(-c3cc4cc(Cl)ccc4o3)nc2s1 [Example 236] | 159
CC(F)(F)c1nn2cc(-c3cc4ccc(Cl)cc4o3)nc2s1 [Example 237] | 28.8
CC(F)(F)c1nn2cc(-c3cc4c(Cl)cc(Cl)cc4o3)nc2s1 [Example 238] | 42.5
COc1cc2oc(-c3cn4nc(C(C)(F)F)sc4n3)cc2cc1Cl [Example 239] | 7.24
CC(F)(F)c1nn2cc(-c3cc4cccc(OC(F)(F)F)c4o3)nc2s1 [Example 240] | 671
CC(F)(F)c1nn2cc(-c3cc4ccc(OCc5ccccc5)cc4o3)nc2s1 [Example 241] | 290
COc1cc(OC)c2cc(-c3cn4nc(C(C)(F)F)sc4n3)oc2c1 [Example 242] | 50.5
Fc1ccc2cc(-c3cn4nc(C(F)(F)Cl)sc4n3)oc2c1 [Example 243] | 364
Cc1ccc2cc(-c3cn4nc(C(F)(F)Cl)sc4n3)oc2c1 [Example 244] | 383
CC(F)c1nn2cc(-c3cc4ccc(F)cc4o3)nc2s1 (stereo not shown) [Example 245] | 72.3
CC(F)c1nn2cc(-c3cc4ccc(OCc5ccccc5)cc4o3)nc2s1 (stereo not shown) [Example 246] | 318
CC(F)c1nn2cc(-c3cc4ccccc4o3)nc2s1 (stereo not shown) [Example 247] | 47.9
CSc1nn2cc(-c3cc4c(OCC#N)cccc4o3)nc2s1 [Example 248] | 145

Source: patent US9862730B2, “Imidazothiadiazole derivatives as protease activated receptor 4 (PAR4) inhibitors for treating platelet aggregation” (BRISTOL-MYERS SQUIBB COMPANY, priority 2012, dated 2018)
